This is an account of results in ChEMBL document CHEMBL1201862, “PubChem BioAssay data set” (2004).

Assay [1] concerns the target Estrogen receptor (Homo sapiens, UniProt P03372).
Assay [2] concerns the target Estrogen receptor beta (Homo sapiens, UniProt Q92731).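 Further: recombinant ER-beta bound to coactivator SRC1 peptide in presence of estradiol agonist; inhibitors block coactivator peptide binding and lower the FRET signal.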
For assay [3], the target named is NADPH oxidase 1 (Homo sapiens, UniProt Q9Y5S8). Briefly: Luminescence-based cell-based dose response assay to identify inhibitors of NADPH oxidase 1 (NOX1). The format is functional.
Sequence of NADPH oxidase 1 (Q9Y5S8 whole entry): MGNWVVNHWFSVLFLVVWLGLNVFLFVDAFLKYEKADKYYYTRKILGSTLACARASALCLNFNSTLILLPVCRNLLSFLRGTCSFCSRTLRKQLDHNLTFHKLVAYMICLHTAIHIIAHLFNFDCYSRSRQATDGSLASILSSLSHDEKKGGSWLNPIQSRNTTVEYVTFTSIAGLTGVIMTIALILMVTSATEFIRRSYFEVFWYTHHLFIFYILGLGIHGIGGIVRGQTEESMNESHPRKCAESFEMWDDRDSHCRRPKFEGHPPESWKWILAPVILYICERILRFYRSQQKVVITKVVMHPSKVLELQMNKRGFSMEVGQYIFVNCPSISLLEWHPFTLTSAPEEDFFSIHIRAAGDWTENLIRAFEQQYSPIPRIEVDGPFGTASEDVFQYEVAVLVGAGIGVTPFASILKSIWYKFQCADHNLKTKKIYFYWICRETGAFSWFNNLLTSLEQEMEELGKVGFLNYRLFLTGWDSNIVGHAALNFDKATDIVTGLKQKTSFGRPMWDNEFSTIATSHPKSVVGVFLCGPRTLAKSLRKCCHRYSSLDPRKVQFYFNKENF
In assay [4] the target is Sphingosine 1-phosphate receptor 2 (Homo sapiens, UniProt O95136). Briefly: Dose Response Cell Based Assay for Agonists of the S1P2 Receptor. [Related pubchem assays: 729, 736, 843 ]. The format is functional.
Sequence of Sphingosine 1-phosphate receptor 2 (O95136 whole entry): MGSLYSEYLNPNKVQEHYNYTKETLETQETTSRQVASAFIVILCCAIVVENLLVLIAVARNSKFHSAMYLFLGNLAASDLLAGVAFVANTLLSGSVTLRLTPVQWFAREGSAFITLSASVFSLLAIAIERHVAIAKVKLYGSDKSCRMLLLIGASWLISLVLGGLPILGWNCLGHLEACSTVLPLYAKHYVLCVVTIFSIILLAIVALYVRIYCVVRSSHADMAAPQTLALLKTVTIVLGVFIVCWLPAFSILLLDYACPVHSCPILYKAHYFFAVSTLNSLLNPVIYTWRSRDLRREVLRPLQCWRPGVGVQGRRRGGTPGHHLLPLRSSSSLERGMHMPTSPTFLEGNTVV
For assay [5], the target named is Luciferin 4-monooxygenase (Photinus pyralis, UniProt P08659). Briefly: Counter Screen for Luciferase-based Assay Positives. [Related pubchem assays: 620, 618, 411 ].
Sequence of Luciferin 4-monooxygenase (P08659 whole entry): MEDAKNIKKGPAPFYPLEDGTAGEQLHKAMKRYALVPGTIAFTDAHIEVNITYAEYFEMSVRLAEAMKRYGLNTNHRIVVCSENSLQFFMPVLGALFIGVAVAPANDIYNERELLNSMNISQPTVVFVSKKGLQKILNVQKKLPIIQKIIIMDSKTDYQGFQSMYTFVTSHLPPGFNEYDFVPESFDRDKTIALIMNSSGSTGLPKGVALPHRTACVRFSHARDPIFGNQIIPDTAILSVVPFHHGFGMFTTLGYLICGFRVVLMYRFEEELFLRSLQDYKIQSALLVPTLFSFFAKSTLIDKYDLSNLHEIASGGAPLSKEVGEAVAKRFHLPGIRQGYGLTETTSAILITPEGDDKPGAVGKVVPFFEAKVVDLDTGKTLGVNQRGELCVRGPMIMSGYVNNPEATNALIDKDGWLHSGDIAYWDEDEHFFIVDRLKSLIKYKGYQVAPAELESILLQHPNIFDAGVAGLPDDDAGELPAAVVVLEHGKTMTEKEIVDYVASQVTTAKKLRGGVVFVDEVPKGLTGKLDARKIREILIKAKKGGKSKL
Assay [6] concerns the target T1, Microphthalmia-associated transcription factor (Homo sapiens, UniProt O75030).
T1 sequence (O75030 whole entry): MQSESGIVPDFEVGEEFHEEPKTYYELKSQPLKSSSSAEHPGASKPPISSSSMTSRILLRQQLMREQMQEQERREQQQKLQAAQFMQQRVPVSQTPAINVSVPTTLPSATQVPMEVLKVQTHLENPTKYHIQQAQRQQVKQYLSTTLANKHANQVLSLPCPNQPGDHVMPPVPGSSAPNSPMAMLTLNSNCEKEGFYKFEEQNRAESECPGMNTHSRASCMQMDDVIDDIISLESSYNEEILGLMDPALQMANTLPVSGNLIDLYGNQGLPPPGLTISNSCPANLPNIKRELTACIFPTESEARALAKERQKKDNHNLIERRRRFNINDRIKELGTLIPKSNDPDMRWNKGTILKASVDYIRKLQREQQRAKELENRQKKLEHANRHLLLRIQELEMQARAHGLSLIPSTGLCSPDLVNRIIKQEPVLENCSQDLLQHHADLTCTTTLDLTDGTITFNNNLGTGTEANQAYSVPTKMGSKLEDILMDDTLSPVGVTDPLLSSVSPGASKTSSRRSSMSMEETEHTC
As to the kind of experiment: reducers of TRPM1 reporter luminescence, concentration series – cell-based, SK-MEL-5, cherry-picked, set 3, MITF inhibitor project, dose response (AID 493073).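 Further: SK-MEL-5 melanoma cells with luciferase driven by the MITF target TRPM1 promoter.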 The format is functional.

The target of assay [7] is Genome polyprotein (dengue virus type 2, UniProt P29990). As to the kind of experiment: flavivirus cap methylation enzyme inhibition – biochemical, confirmation dose response, primary screen (AID 588689). The format is functional.
Sequence of Genome polyprotein (P29990 2492-3391 limits assumed): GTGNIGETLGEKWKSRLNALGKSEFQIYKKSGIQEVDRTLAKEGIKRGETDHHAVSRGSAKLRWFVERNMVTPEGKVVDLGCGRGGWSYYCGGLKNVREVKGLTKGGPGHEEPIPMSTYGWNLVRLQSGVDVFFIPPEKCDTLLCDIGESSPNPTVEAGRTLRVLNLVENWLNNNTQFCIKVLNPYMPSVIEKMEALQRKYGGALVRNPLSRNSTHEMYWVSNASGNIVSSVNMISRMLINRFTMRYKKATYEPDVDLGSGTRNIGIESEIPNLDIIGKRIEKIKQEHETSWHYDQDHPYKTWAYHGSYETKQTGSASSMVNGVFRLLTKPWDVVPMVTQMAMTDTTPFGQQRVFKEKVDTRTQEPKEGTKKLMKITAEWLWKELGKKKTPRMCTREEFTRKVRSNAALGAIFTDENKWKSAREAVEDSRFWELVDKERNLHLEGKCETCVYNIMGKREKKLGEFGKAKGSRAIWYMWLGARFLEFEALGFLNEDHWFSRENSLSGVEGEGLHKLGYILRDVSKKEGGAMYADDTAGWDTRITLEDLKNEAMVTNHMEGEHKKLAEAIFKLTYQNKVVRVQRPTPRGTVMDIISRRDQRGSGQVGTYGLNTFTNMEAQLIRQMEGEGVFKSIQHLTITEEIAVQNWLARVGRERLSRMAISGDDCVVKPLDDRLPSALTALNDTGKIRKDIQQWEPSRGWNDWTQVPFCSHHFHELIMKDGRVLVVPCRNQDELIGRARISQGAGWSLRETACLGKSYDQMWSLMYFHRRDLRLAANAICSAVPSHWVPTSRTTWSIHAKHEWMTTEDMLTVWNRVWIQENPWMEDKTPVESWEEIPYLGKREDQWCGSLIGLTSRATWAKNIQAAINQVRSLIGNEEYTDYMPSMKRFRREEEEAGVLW
Assay [8] in a line: NIH-3T3 fibroblast cytotoxicity, dose response, cytotoxicity control, cell-based, fluorescence, Alamar Blue, secondary assay (AID 2327).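 Further: NIH-3T3 mouse fibroblasts cultured with fluconazole at 8 µg/mL.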 The class given is functional. On the technique in general: Alamar Blue is a resazurin reagent that responds to reducing activity.
The nature of assay [9]: viability of uninfected HEp-2 cells – cell-based, HTS, cytotoxicity control for RSV inhibitor project, dose response (AID 2410). The class given is functional. The following applies: human respiratory syncytial virus.
Assay [10] can be described thus: fluconazole-exposed Candida albicans growth modulators – fluorescence, retest, confirmation (AID 2467). The format is functional, cell-based.
A short description of assay [11]: cells.
The target of assay [12] is T2, RNA-binding protein pos-1 (Caenorhabditis elegans, UniProt G5EF15).
T2 sequence (G5EF15 whole entry): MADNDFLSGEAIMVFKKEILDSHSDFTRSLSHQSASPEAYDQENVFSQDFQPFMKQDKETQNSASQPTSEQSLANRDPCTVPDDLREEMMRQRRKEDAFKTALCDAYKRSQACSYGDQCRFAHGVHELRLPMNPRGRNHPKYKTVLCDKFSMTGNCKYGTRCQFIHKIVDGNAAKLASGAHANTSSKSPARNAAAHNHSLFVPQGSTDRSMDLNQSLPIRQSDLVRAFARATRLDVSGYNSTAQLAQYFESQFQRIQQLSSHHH
As to the kind of experiment: disruptors of C. elegans POS-1 RNA interaction – biochemical, fluorescence polarization, dose response (AID 1964).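 Further: purified POS-1 fused to maltose binding protein made in E. coli; potency of compounds blocking POS-1 binding to fluorescent RNA.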 On the technique in general: Polarisation of emitted light reports the rotation of a fluorescent probe.

The target of assay [13] is T3, Zinc finger protein mex-5 (Caenorhabditis elegans, UniProt Q9XUB2).
T3 sequence (Q9XUB2 whole entry): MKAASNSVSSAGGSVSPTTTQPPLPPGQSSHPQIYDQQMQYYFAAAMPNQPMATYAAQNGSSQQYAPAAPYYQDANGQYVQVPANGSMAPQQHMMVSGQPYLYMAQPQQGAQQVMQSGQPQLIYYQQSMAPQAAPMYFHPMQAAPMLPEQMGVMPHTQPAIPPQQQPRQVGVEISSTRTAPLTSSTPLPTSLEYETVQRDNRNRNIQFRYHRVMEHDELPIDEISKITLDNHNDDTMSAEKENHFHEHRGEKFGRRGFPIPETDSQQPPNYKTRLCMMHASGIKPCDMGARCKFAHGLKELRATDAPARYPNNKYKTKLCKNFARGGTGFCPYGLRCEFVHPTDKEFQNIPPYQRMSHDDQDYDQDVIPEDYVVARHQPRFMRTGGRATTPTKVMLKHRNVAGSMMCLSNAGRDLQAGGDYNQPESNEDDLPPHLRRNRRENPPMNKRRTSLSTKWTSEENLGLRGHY
Briefly: potency of MEX-5 RNA-binding blockers – biochemical, C. elegans, fluorescence polarization, dose response (AID 1960).

Assay [14] can be described thus: M. tuberculosis H37Rv growth inhibitors, H37Rv strain (AID 1626). The class given is functional.
Assay [15] has as its target Mucolipin-3 (Homo sapiens, UniProt Q8TDD5). Briefly: Dose response cell-based high-throughput screening assay for agonists of the transient receptor potential channel ML3 (TRPML3). [Related pubchem assays: 1526, 1424, 1448 ]. The format is functional.
Assay [16] addresses Ion channel NompC (Danio rerio, UniProt Q7T1G6). Briefly: Fluorescence counterscreen assay for TRPML3 agonists: dose response cell-based high-throughput screening assay to identify agonists of the transient receptor potential channel N1 (TRPN1). [Related pubchem assays: 1526, 1424, 1448 ]. The class given is functional. On the technique in general: The purpose of a counterscreen is to sort out artefacts and off-target activity.

For assay [17], the target named is Epstein-Barr nuclear antigen 1 (Epstein-Barr virus (strain B95-8) (HHV-4) (Human herpesvirus 4), UniProt P03211). As to the kind of experiment: inhibition of EBV nuclear antigen 1 DNA binding – biochemical, fluorescence polarization, 1536-well, dose response (AID 2381).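 Further: fluorescence polarization of a Cy5 DNA probe bound by EBNA-1 protein.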 Also on record: species or system human gammaherpesvirus 4.
Sequence of Epstein-Barr nuclear antigen 1 (P03211 whole entry): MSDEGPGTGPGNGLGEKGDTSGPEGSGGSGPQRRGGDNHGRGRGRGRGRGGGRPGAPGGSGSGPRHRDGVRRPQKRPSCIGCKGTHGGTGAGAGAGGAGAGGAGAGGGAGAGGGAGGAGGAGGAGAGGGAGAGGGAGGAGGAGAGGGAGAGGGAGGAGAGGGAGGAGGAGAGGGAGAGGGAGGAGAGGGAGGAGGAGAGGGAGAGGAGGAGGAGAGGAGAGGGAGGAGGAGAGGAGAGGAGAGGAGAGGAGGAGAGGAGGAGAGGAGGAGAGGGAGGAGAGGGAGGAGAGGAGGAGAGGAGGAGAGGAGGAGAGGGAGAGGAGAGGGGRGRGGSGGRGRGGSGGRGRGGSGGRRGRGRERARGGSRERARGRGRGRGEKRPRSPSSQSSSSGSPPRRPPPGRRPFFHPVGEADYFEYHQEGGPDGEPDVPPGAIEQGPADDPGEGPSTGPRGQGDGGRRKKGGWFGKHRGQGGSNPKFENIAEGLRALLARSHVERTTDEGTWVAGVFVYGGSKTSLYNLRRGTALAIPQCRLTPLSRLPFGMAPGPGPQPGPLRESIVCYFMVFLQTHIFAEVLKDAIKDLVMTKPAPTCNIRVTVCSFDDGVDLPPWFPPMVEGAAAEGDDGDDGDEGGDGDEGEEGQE
The target in assay [18] is T4, Calpain-2 catalytic subunit (Sus scrofa, UniProt P43367).
T4 sequence (P43367 whole entry): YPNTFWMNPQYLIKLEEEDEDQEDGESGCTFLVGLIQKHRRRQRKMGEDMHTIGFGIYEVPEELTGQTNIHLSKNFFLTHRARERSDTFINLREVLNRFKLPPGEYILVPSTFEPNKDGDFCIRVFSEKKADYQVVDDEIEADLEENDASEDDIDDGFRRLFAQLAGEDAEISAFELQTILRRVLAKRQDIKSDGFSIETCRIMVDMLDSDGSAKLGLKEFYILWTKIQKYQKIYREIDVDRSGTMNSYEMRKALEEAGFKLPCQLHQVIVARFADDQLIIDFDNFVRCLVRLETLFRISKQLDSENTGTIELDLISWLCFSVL
Briefly: m-calpain protease blockers, concentration series – biochemical, fluorogenic peptide substrate, dose response (AID 1420). The class given is functional.

Assay [19] addresses Lytic switch protein BZLF1 (Epstein-Barr virus (strain B95-8) (HHV-4) (Human herpesvirus 4), UniProt P03206). Briefly: inhibition of BZLF1 ZTA DNA binding – biochemical, fluorescence polarization, Epstein-Barr virus, 1536-well, counter-screen for EBNA-1 inhibitor project, dose response (AID 2377).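 Further: fluorescence polarization of Cy5-labelled ZRE DNA probe bound by purified Zta.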 Also on record: species or system human gammaherpesvirus 4.
The test system of assay [20] is Vero. As to the kind of experiment: cells. The format is functional, cell-based. Particulars: Chlorocebus sabaeus.

The structures appear in SMILES notation. Activity calls are given as the source filed them.

Sequence of Estrogen receptor (P03372 whole entry): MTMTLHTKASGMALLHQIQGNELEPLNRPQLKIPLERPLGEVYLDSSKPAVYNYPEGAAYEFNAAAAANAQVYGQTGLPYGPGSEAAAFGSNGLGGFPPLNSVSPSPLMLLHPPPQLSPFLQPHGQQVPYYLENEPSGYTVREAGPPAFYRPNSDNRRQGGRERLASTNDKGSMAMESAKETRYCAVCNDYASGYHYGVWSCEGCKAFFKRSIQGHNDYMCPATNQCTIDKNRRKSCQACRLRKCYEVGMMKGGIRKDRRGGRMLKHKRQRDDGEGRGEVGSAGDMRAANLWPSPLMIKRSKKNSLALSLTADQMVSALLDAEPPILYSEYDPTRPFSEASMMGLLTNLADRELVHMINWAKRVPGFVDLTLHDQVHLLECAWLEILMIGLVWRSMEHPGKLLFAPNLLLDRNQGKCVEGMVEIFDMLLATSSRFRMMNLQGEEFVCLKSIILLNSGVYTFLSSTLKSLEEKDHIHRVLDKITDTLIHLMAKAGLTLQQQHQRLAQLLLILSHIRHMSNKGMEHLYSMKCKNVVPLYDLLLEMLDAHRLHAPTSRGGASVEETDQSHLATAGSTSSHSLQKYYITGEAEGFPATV
Sequence of Mucolipin-3 (Q8TDD5 whole entry): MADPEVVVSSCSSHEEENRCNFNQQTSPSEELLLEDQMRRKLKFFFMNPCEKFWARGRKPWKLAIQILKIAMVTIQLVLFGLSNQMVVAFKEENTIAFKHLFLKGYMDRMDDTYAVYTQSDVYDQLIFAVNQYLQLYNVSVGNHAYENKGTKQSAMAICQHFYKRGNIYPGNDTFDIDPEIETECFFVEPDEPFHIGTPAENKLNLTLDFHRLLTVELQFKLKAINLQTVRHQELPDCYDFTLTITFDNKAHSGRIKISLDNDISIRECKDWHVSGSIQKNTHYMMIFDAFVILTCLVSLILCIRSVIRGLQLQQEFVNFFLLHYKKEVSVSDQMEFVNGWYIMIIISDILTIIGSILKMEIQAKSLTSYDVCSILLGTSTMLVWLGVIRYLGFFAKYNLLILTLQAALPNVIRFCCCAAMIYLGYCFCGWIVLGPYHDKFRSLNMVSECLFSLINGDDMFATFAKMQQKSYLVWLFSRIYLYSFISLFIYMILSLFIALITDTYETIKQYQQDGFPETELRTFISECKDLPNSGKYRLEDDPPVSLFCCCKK
Sequence of Lytic switch protein BZLF1 (P03206 whole entry): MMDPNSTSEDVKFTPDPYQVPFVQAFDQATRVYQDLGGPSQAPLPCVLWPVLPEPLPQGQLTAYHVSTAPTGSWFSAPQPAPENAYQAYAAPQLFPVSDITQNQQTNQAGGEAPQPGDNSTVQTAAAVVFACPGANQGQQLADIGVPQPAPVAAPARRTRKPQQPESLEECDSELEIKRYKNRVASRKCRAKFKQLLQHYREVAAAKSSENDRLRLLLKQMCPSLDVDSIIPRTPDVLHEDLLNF
Sequence of Estrogen receptor beta (Q92731 whole entry): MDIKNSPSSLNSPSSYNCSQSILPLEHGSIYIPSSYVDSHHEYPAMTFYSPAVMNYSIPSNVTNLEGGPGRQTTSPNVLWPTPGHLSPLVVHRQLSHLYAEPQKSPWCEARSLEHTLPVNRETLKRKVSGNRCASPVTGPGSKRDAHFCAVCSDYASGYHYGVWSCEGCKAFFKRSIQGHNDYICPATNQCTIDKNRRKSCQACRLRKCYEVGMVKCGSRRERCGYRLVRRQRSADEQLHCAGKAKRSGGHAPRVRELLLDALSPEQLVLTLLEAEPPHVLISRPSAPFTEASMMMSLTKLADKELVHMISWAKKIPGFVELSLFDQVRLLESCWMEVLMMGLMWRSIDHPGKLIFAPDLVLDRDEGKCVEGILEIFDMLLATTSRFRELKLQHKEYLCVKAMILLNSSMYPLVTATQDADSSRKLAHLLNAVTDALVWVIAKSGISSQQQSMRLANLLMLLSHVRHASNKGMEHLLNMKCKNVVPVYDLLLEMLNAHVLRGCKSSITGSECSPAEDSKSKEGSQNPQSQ

Turning to `CSc1ccc(S(=O)(=O)Nc2c(C)cccc2C)cc1`, in [1], the IC50 (commonly the concentration that inhibits the measured activity by half) is given as > 50 µM (not active).

As for `Cc1cnc(C(=O)OCC(=O)c2csc(N3CCCCC3)n2)cn1`, the IC50 in assay [2] is 5.81 µM (active).

For `CN(C)c1ccc(NC(=O)Nc2cccc3ccccc23)cc1`, the IC50 in [3] is 464 nM (active).

Turning to `CCN(CC)c1ccc(NC(=O)Nc2ccccc2C(F)(F)F)cc1`, the IC50 in [3] is 354 nM (active). The 50% effective concentration (EC50) – broadly, the midpoint of the concentration-response curve – in [4] was > 50 µM (not active).

For `O=C(NCc1cccs1)c1nc2c(nnn2Cc2ccccc2Cl)c(=O)[nH]1`, the EC50 in [5] was 15.4 µM (active). Besides, the AC50 – broadly, the concentration at which the activity in the assay is half-maximal – in assay [6] is 6.66 µM (active). In addition, the IC50 in assay [7] is 51.8 µM (active).

For the compound `O=C(c1ccc(C(=O)N2CCCc3ccccc32)s1)N1CCCc2ccccc21`, the results for the EC50 in [8] and in assay [10] were 20.7 µM (inconclusive) and 2.45 µM (active), respectively. For the same compound, the CC50 – broadly, the concentration at which the toxic effect on the cells reaches its halfway point – in [9] was > 50 µM (active). Further, in assay [11], the IC50 is > 50 µM (active).

With `CCOC(=O)c1ccc(N/C=C2\CCCCC2=O)cc1`, the EC50 in assay [12] and in assay [13] was > 300 µM (not active) throughout. In assay [14], the IC50 is > 100 µM (active).

`CCn1c2ccccc2c2nnc(SCC(=O)Nc3ccc4c(c3)OCO4)nc21`: the IC50 in assay [1] is recorded as > 50 µM (not active).

For `Cc1ccccc1OCC(=O)Nc1ccccc1N1CCOCC1`, the values for the EC50 in assay [15] and in assay [16] were 5.08 µM (active) and > 29.9 µM (not active), respectively.

As to `Cc1nc(NC(=O)CSc2nnc(-c3ccc4c(c3)OCO4)o2)c(Cl)cc1Cl`, the IC50 in assay [14] was > 100 µM (active).

Regarding `CCOc1ccc(Nc2nnc(SCc3nc(O)c4ccccc4n3)s2)cc1`, the IC50 in assay [17] is 27 µM (not active); in assay [18], 29.2 µM (not active); in [19] it was > 111 µM (not active).

Regarding `Cc1ccc(CSCC(=O)Nc2ccccc2C(=O)O)cc1`, in assay [9], the 50% cytotoxic concentration (CC50) was 21.9 µM (active). Also, the results for the IC50 in assay [20] and in assay [11] were 12.2 µM (active) and 9.39 µM (active), respectively.
